Experimental data published in article PMC5608804, “Stepwise Evolution Improves Identification of Diverse Peptides Binding to a Protein Target” (Scientific Reports, 2017).

Target: T1, streptavidin (Streptomyces avidinii, UniProt P22629)
T1 construct: purchased GE Healthcare (Little Chalfont, UK)
Assay: Cy5-streptavidin binding on HotSpot discovery array, 5-mer L-peptide library
Conditions: for S/B: signal to background ratio
Procedure, shortened: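 Array of 2,476,099 5-mer peptides (19 amino acids, no cysteine) with Gly-Ser linkers, probed overnight at 4 °C with 0.5 µg/ml Cy5-streptavidin in Tris pH 7.4 buffer containing casein or BSA plus Tween-20. Cy5 fluorescence read at 635 nm; peptides selected by signal-to-background >4 across three arrays.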

[1] = 5-mer L-peptide library array, Cy5-streptavidin, from average of three arrays
[2] = 5-mer L-peptide library array, Cy5-streptavidin, from the average of three arrays
[3] = 5-mer L-peptide library array, Cy5-streptavidin
[4] = 5-mer L-peptide library, from the average of three arrays
[5] = average of three arrays, L-peptide 5-mer library

T1 sequence (P22629 25-183): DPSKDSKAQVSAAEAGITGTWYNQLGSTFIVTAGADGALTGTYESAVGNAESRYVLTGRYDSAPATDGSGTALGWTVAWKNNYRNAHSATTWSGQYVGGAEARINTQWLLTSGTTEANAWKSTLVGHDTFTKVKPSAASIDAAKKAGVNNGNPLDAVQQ

HPQNL
S/B (signal to background ratio) [1]: 57.7

HPQNN
S/B (signal to background ratio) [2]: 112.8

HPQNP
S/B (signal to background ratio) [2]: 89.0

HPQNQ
S/B (signal to background ratio) [2]: 86.9

HPQNR
S/B (signal to background ratio) [1]: 50.5

HPQNS
S/B (signal to background ratio) [2]: 112.6

HPQNT
S/B (signal to background ratio) [2]: 67.6

HPQNV
S/B (signal to background ratio) [2]: 84.4

HPQNW
S/B (signal to background ratio) [2]: 93.4

HPQNY
S/B (signal to background ratio) [2]: 103.6

HPQPD
S/B [3]: 6.3

HPQPF
S/B [3]: 5.7

HPQPG
S/B [3]: 5.6

HPQPN
S/B [3]: 5.5

HPQPP
S/B [3]: 6.0

HPQPQ
S/B (signal to background ratio) [4]: 4.4

HPQPW
S/B (signal to background ratio) [4]: 4.6

HPQQD
S/B [3]: 7.4

HPQQG
S/B (signal to background ratio) [1]: 47.0

HPQQH
S/B [3]: 12.2

HPQQK
S/B (signal to background ratio) [4]: 4.4

HPQQN
S/B (signal to background ratio) [1]: 23.0

HPQQQ
S/B [3]: 10.8

HPQQS
S/B (signal to background ratio) [1]: 19.2

HPQQW
S/B [3]: 16.8

HPQRD
S/B [3]: 10.7

HPQRF
S/B [3]: 7.3

HPQRG
S/B (signal to background ratio) [1]: 33.4

HPQRH
S/B [3]: 8.8

HPQRI
S/B (signal to background ratio) [4]: 5.0

HPQRN
S/B [3]: 17.7

HPQRP
S/B [3]: 9.4

HPQRQ
S/B [3]: 9.1

HPQRS
S/B [3]: 15.9

HPQRV
S/B [3]: 5.3

HPQRW
S/B (signal to background ratio) [1]: 30.7

HPQSF
S/B [3]: 13.1

HPQSG
S/B (signal to background ratio) [2]: 90.1

HPQSH
S/B [3]: 12.3

HPQSI
S/B [3]: 7.3

HPQSK
S/B (signal to background ratio) [4]: 4.7

HPQSS
S/B (signal to background ratio) [1]: 28.2

HPQST
S/B [3]: 12.9

HPQSW
S/B [3]: 18.3

HPQTA
S/B [3]: 10.4

HPQTG
S/B (signal to background ratio) [1]: 28.1

HPQTQ
S/B [3]: 5.4

HPQTV
S/B (signal to background ratio) [4]: 4.3

HPQVA
S/B (signal to background ratio) [2]: 67.2

HPQVD
S/B (signal to background ratio) [1]: 33.5

HPQVE
S/B (signal to background ratio) [1]: 19.8

HPQVF
S/B (signal to background ratio) [1]: 56.9

HPQVG
S/B (signal to background ratio) [2]: 114.3

HPQVH
S/B (signal to background ratio) [1]: 57.8

HPQVN
S/B (signal to background ratio) [2]: 63.9

HPQVP
S/B (signal to background ratio) [2]: 62.1

HPQVQ
S/B (signal to background ratio) [1]: 49.2

HPQVR
S/B (signal to background ratio) [1]: 28.4

HPQVS
S/B (signal to background ratio) [2]: 77.3

HPQVY
S/B (signal to background ratio) [2]: 64.1

HPQWA
S/B [3]: 8.4

HPQWG
S/B (signal to background ratio) [1]: 26.9

HPQWQ
S/B [3]: 5.5

HPQYA
S/B (signal to background ratio) [1]: 20.2

HPQYD
S/B [3]: 8.0

HPQYG
S/B (signal to background ratio) [1]: 55.1

HPQYK
S/B [3]: 6.3

HPQYL
S/B (signal to background ratio) [4]: 4.7

HPQYN
S/B (signal to background ratio) [2]: 66.1

HPQYQ
S/B [3]: 15.5

HPQYR
S/B [3]: 7.0

HPQYW
S/B [3]: 5.7

HPQYY
S/B [3]: 9.4

HPRQF
S/B (signal to background ratio) [4]: 4.3

HPRWG
S/B (signal to background ratio) [4]: 4.2

HPRWM
S/B (signal to background ratio) [4]: 4.5

HPTPW
S/B [3]: 15.1

HPVPP
S/B [3]: 12.4

HPWRF
S/B [3]: 7.0

HPWRH
S/B (signal to background ratio) [4]: 5.0

HPWRN
S/B (signal to background ratio) [4]: 4.7

HPWRS
S/B (signal to background ratio) [4]: 4.0

HPWRT
S/B (signal to background ratio) [4]: 4.4

HPWRY
S/B [3]: 11.4

HQHPM
S/B (signal to background ratio) [1]: 47.3

HQHPQ
S/B (signal to background ratio) [1]: 145.4

HRHPM
S/B (signal to background ratio) [2]: 61.8

HRHPQ
S/B (signal to background ratio) [1]: 149.4

HSHPM
S/B (signal to background ratio) [1]: 54.9

HSHPQ
S/B (signal to background ratio) [1]: 136.9

HTHPQ
S/B (signal to background ratio) [1]: 139.1

HVHPQ
S/B (signal to background ratio) [2]: 105.7

HWHPQ
S/B (signal to background ratio) [1]: 166.7

HYHPM
S/B (signal to background ratio) [2]: 88.3

HYHPQ
S/B (signal to background ratio) [1]: 184.3

IAAYH [L-amino acid 5-mer array peptide]
S/B (signal to background ratio) [4]: 4.8 | S/B (signal to background ratio) [5]: 4.8

IAHPM
S/B (signal to background ratio) [1]: 46.1

IAHPQ
S/B (signal to background ratio) [1]: 136.2

IDHPQ
S/B (signal to background ratio) [2]: 88.2

IEHPQ
S/B (signal to background ratio) [2]: 67.6

IFHPM
S/B (signal to background ratio) [2]: 60.0

IFHPQ
S/B (signal to background ratio) [1]: 166.8

IGHPM
S/B (signal to background ratio) [2]: 72.3

IGHPQ
S/B (signal to background ratio) [1]: 174.2

IHPMA
S/B (signal to background ratio) [2]: 70.9

IHPMM
S/B [3]: 6.6

IHPQA
S/B (signal to background ratio) [1]: 150.7

IHPQD
S/B [3]: 10.4

IHPQF
S/B (signal to background ratio) [1]: 148.4

IHPQG
S/B (signal to background ratio) [2]: 85.9

IHPQK
S/B [3]: 11.6

IHPQN
S/B (signal to background ratio) [1]: 128.3

IHPQQ
S/B (signal to background ratio) [1]: 32.5

IHPQT
S/B [3]: 13.6

IHPQW
S/B [3]: 12.0

IKHPM
S/B (signal to background ratio) [1]: 19.0

ILHPQ
S/B (signal to background ratio) [1]: 121.2

IMHPM
S/B (signal to background ratio) [1]: 35.1

IPHPM
S/B (signal to background ratio) [1]: 35.9

IPHPQ
S/B (signal to background ratio) [1]: 167.5

IQHPM
S/B (signal to background ratio) [1]: 50.9

IQHPQ
S/B (signal to background ratio) [1]: 139.6

IRHPM
S/B (signal to background ratio) [2]: 63.6

IRHPQ
S/B (signal to background ratio) [1]: 165.9

ISHPQ
S/B (signal to background ratio) [1]: 142.0

ITHPM
S/B (signal to background ratio) [1]: 41.5

IVHPM
S/B (signal to background ratio) [1]: 23.5

IVHPQ
S/B (signal to background ratio) [2]: 94.3

IWHPQ
S/B (signal to background ratio) [1]: 174.8

IYHPQ
S/B (signal to background ratio) [1]: 169.4

KAHPQ
S/B (signal to background ratio) [2]: 77.0

KFHPM
S/B (signal to background ratio) [1]: 29.8

KFHPQ
S/B (signal to background ratio) [2]: 81.9

KGHPQ
S/B (signal to background ratio) [2]: 65.1

KHHPM
S/B (signal to background ratio) [1]: 29.1

KHHPQ
S/B (signal to background ratio) [2]: 96.3

KHPMA
S/B (signal to background ratio) [1]: 27.5

KHPMF
S/B (signal to background ratio) [4]: 4.5

KHPMH
S/B (signal to background ratio) [4]: 5.1

KHPMM
S/B (signal to background ratio) [4]: 4.9

KHPMN
S/B [3]: 5.9

KHPMS
S/B [3]: 8.8

KHPMV
S/B [3]: 6.9

KHPMY
S/B [3]: 6.0

KHPQA
S/B (signal to background ratio) [2]: 92.8

KHPQF
S/B (signal to background ratio) [1]: 52.9

KHPQG
S/B (signal to background ratio) [2]: 73.1

KHPQN
S/B (signal to background ratio) [2]: 64.6

KHPQT
S/B [3]: 7.6

KHPQV
S/B (signal to background ratio) [1]: 33.0

KHPQW
S/B [3]: 9.2

KHPQY
S/B [3]: 18.3

KIHPQ
S/B (signal to background ratio) [2]: 60.4

KKHPQ
S/B (signal to background ratio) [1]: 22.5

KLHPQ
S/B (signal to background ratio) [2]: 71.4

KMHPM
S/B (signal to background ratio) [1]: 22.0

KMHPQ
S/B (signal to background ratio) [2]: 80.4

KNHPQ
S/B (signal to background ratio) [2]: 104.8

KPHPM
S/B (signal to background ratio) [1]: 21.9

KPHPQ
S/B (signal to background ratio) [2]: 117.2

KQHPQ
S/B (signal to background ratio) [2]: 94.4

KSHPQ
S/B (signal to background ratio) [2]: 80.0

KTHPQ
S/B (signal to background ratio) [2]: 86.3

KVHPQ
S/B (signal to background ratio) [2]: 65.5

KWHPQ
S/B (signal to background ratio) [1]: 127.9

KYHPQ
S/B (signal to background ratio) [1]: 140.2

LAAYH [L-amino acid 5-mer array peptide]
S/B (signal to background ratio) [2]: 67.7 | S/B (signal to background ratio) [5]: 67.7

LAEYH [L-amino acid 5-mer array peptide]
S/B (signal to background ratio) [1]: 45.0 | S/B (signal to background ratio) [5]: 45.0
